Test results: patent publication US8242113B2, “Oxazolidinone derivatives with cyclic amidoxime or cyclic amidrazone pharmaceutical compositions thereof” (Legochem Biosciences, Inc., priority 2008, dated 2012)
Converted amounts (≈) assume the structure as drawn.

Legend:
[1] = test system: methicillin-resistant Staphylococcus aureus (MRSA); assay: In vitro antibacterial activity, broth microdilution (MIC90); conditions: read-out: Antibacterial activity MIC90, MRSA
From the text: (§1) MIC90 measurement was made according to the broth microdilution method based on the CLSI document [Clinical and Laboratory Standards Institute Document.
(§2) The test compounds in DMSO solution were further diluted 20-fold with sterile distilled water.

[2] = test system: linezolid- and vancomycin-resistant Enterococcus faecalis (LVRE); assay: as above; conditions: read-out: Antibacterial activity MIC90, LVRE
From the text: as §1, §2

| Compound | MIC90 [1] | MIC [2] |
| --- | --- | --- |
| CC(=O)NC[C@H]1CN(c2ccc(N3C=NN(C=O)CC3)c(F)c2)C(=O)O1 [Compound 1] | 1 µg/mL (≈ 2.75 µM) | 8 µg/mL (≈ 22 µM) |
| CC(=O)NC[C@H]1CN(c2ccc(N3C=NNCC3)c(F)c2)C(=O)O1 [Compound 2] | 2 µg/mL (≈ 5.96 µM) | 16 µg/mL (≈ 47.7 µM) |
| CC(=O)NC[C@H]1CN(c2ccc(N3C=NN(C)CC3)c(F)c2)C(=O)O1 [Compound 3] | 2 µg/mL (≈ 5.72 µM) | 8 µg/mL (≈ 22.9 µM) |
| C=CCN1CCN(c2ccc(N3C[C@H](CNC(C)=O)OC3=O)cc2F)C=N1 [Compound 4] | 1 µg/mL (≈ 2.66 µM) | 8 µg/mL (≈ 21.3 µM) |
| C#CCN1CCN(c2ccc(N3C[C@H](CNC(C)=O)OC3=O)cc2F)C=N1 [Compound 5] | 1 µg/mL (≈ 2.68 µM) | 8 µg/mL (≈ 21.4 µM) |
| CCN1CCN(c2ccc(N3C[C@H](CNC(C)=O)OC3=O)cc2F)C=N1 [Compound 6] | 2 µg/mL (≈ 5.5 µM) | 8 µg/mL (≈ 22 µM) |
| CC(=O)NC[C@H]1CN(c2ccc(N3C=NN(CC#N)CC3)c(F)c2)C(=O)O1 [Compound 7] | 1 µg/mL (≈ 2.67 µM) | 8 µg/mL (≈ 21.4 µM) |
| CC(=O)NC[C@H]1CN(c2ccc(N3C=NN(CC(F)(F)F)CC3)c(F)c2)C(=O)O1 [Compound 8] | 4 µg/mL (≈ 9.58 µM) | 16 µg/mL (≈ 38.3 µM) |
| CC(=O)NC[C@H]1CN(c2ccc(N3C=NN(C#N)CC3)c(F)c2)C(=O)O1 [Compound 9] | 0.5 µg/mL (≈ 1.39 µM) | 8 µg/mL (≈ 22.2 µM) |
| CC(=O)NC[C@H]1CN(c2ccc(N3C=NN(C(C)=O)CC3)c(F)c2)C(=O)O1 [Compound 10] | 4 µg/mL (≈ 10.6 µM) | 32 µg/mL (≈ 84.8 µM) |
| CC(=O)NC[C@H]1CN(c2ccc(N3C=NN(C(=O)CC#N)CC3)c(F)c2)C(=O)O1 [Compound 11] | 1 µg/mL (≈ 2.49 µM) | 8 µg/mL (≈ 19.9 µM) |
| CC(=O)NC[C@H]1CN(c2ccc(N3C=NN(C(=O)CO)CC3)c(F)c2)C(=O)O1 [Compound 12] | 2 µg/mL (≈ 5.08 µM) | 8 µg/mL (≈ 20.3 µM) |
| CC(=O)NC[C@H]1CN(c2ccc(N3C=NN(C(=O)C4CC4)CC3)c(F)c2)C(=O)O1 [Compound 13] | 4 µg/mL (≈ 9.92 µM) | 16 µg/mL (≈ 39.7 µM) |
| CC(=O)NC[C@H]1CN(c2ccc(N3C=NN(C(N)=O)CC3)c(F)c2)C(=O)O1 [Compound 14] | 2 µg/mL (≈ 5.29 µM) | 8 µg/mL (≈ 21.1 µM) |
| CC(=O)NC[C@H]1CN(c2ccc(N3C=NN(C(=O)NCCO)CC3)c(F)c2)C(=O)O1 [Compound 15] | 4 µg/mL (≈ 9.47 µM) | 8 µg/mL (≈ 18.9 µM) |
| CC(=O)NC[C@H]1CN(c2ccc(N3C=NN(C(=O)N(CCO)CCO)CC3)c(F)c2)C(=O)O1 [Compound 16] | 128 µg/mL (≈ 274 µM) | > 128 µg/mL |
| CC(=O)NC[C@H]1CN(c2ccc(N3C=NN(C(=O)C(F)F)CC3)c(F)c2)C(=O)O1 [Compound 17] | 1 µg/mL (≈ 2.42 µM) | 8 µg/mL (≈ 19.4 µM) |
| CC(=O)NC[C@H]1CN(c2ccc(N3C=NN(S(C)(=O)=O)CC3)c(F)c2)C(=O)O1 [Compound 18] | 4 µg/mL (≈ 9.68 µM) | 16 µg/mL (≈ 38.7 µM) |
| CNC(=S)N1CCN(c2ccc(N3C[C@H](CNC(C)=O)OC3=O)cc2F)C=N1 [Compound 19] | 0.5 µg/mL (≈ 1.22 µM) | 4 µg/mL (≈ 9.79 µM) |
| CC(=O)NC[C@H]1CN(c2ccc(N3C=NN(S(N)(=O)=O)CC3)c(F)c2)C(=O)O1 [Compound 20] | 16 µg/mL (≈ 38.6 µM) | 64 µg/mL (≈ 154 µM) |
| CC(=O)NC[C@H]1CN(c2ccc(N3C=NN(S(=O)(=O)N(C)C)CC3)c(F)c2)C(=O)O1 [Compound 21] | 2 µg/mL (≈ 4.52 µM) | 4 µg/mL (≈ 9.04 µM) |
| CCOC(=O)CN1CCN(c2ccc(N3C[C@H](CNC(C)=O)OC3=O)cc2F)C=N1 [Compound 24] | 2 µg/mL (≈ 4.75 µM) | 16 µg/mL (≈ 38 µM) |
| CC(=O)NC[C@H]1CN(c2ccc(N3C=NN(CC(N)=O)CC3)c(F)c2)C(=O)O1 [Compound 25] | 4 µg/mL (≈ 10.2 µM) | 32 µg/mL (≈ 81.6 µM) |
| CC(=O)NC[C@H]1CN(c2ccc(N3C=NN(CC(=O)NO)CC3)c(F)c2)C(=O)O1 [Compound 26] | 16 µg/mL (≈ 39.2 µM) | 64 µg/mL (≈ 157 µM) |

| Compound | MIC90 [1] | MIC [2] |
| --- | --- | --- |
| CC(=O)NC[C@H]1CN(c2ccc(N3C=NN(CCO)CC3)c(F)c2)C(=O)O1 [Compound 27] | 4 µg/mL (≈ 10.5 µM) | 64 µg/mL (≈ 169 µM) |
| CC(=O)NC[C@H]1CN(c2ccc(N3C=NOCC3)c(F)c2)C(=O)O1 [Compound 28] | 2 µg/mL (≈ 5.95 µM) | 16 µg/mL (≈ 47.6 µM) |
| CC(=O)NC[C@H]1CN(c2ccc(N3C=NN(C(N)=S)CC3)c(F)c2)C(=O)O1 [Compound 29] | 0.5 µg/mL (≈ 1.27 µM) | 4 µg/mL (≈ 10.1 µM) |
| COC(=S)N1CCN(c2ccc(N3C[C@H](CNC(C)=O)OC3=O)cc2F)C=N1 [Compound 30] | 1 µg/mL (≈ 2.44 µM) | 4 µg/mL (≈ 9.77 µM) |
| CCOC(=S)N1CCN(c2ccc(N3C[C@H](CNC(C)=O)OC3=O)cc2F)C=N1 [Compound 31] | 1 µg/mL (≈ 2.36 µM) | 8 µg/mL (≈ 18.9 µM) |
| CC(=O)NC[C@H]1CN(c2ccc(N3C=NN(C(=S)OCCO)CC3)c(F)c2)C(=O)O1 [Compound 32] | 8 µg/mL (≈ 18.2 µM) | 32 µg/mL (≈ 72.8 µM) |
| CC(=O)NC[C@H]1CN(c2ccc(N3C=NN(C(=S)NCCO)CC3)c(F)c2)C(=O)O1 [Compound 33] | 2 µg/mL (≈ 4.56 µM) | 8 µg/mL (≈ 18.2 µM) |
| CC(=O)NC[C@H]1CN(c2ccc(N3C=NN(C(C)=S)CC3)c(F)c2)C(=O)O1 [Compound 34] | 0.5 µg/mL (≈ 1.27 µM) | 4 µg/mL (≈ 10.2 µM) |
| CCOC(=O)N1CCN(c2ccc(N3C[C@H](CNC(C)=O)OC3=O)cc2F)C=N1 [Compound 35] | 2 µg/mL (≈ 4.91 µM) | 8 µg/mL (≈ 19.6 µM) |
| CC(=O)NC[C@H]1CN(c2ccc(N3C=NN(C(=O)C(C)=O)CC3)c(F)c2)C(=O)O1 [Compound 36] | 2 µg/mL (≈ 4.93 µM) | 8 µg/mL (≈ 19.7 µM) |
| CC(=O)CN1CCN(c2ccc(N3C[C@H](CNC(C)=O)OC3=O)cc2F)C=N1 [Compound 37] | 2 µg/mL (≈ 5.11 µM) | 8 µg/mL (≈ 20.4 µM) |
| CC(=O)NC[C@H]1CN(c2ccc(N3C=NN(CC(C)O)CC3)c(F)c2)C(=O)O1 (stereo partly drawn) [Compound 38] | 4 µg/mL (≈ 10.2 µM) | 8 µg/mL (≈ 20.3 µM) |
| C=C(C)CN1CCN(c2ccc(N3C[C@H](CNC(C)=O)OC3=O)cc2F)C=N1 [Compound 39] | 2 µg/mL (≈ 5.14 µM) | 8 µg/mL (≈ 20.5 µM) |
| C=C(Cl)CN1CCN(c2ccc(N3C[C@H](CNC(C)=O)OC3=O)cc2F)C=N1 [Compound 40] | 2 µg/mL (≈ 4.88 µM) | 8 µg/mL (≈ 19.5 µM) |
| CC(=O)NC[C@H]1CN(c2ccc(N3C=NN(C4CCC4)CC3)c(F)c2)C(=O)O1 [Compound 41] | 2 µg/mL (≈ 5.14 µM) | 4 µg/mL (≈ 10.3 µM) |
| N#CCC(=O)NC[C@H]1CN(c2ccc(N3C=NN(C=O)CC3)c(F)c2)C(=O)O1 [Compound 42] | 8 µg/mL (≈ 20.6 µM) | 32 µg/mL (≈ 82.4 µM) |
| CCOC(=O)NC[C@H]1CN(c2ccc(N3C=NN(C=O)CC3)c(F)c2)C(=O)O1 [Compound 43] | 2 µg/mL (≈ 5.08 µM) | 32 µg/mL (≈ 81.3 µM) |
| CCNC(=O)NC[C@H]1CN(c2ccc(N3C=NN(C=O)CC3)c(F)c2)C(=O)O1 [Compound 44] | 8 µg/mL (≈ 20.4 µM) | 64 µg/mL (≈ 163 µM) |
| O=CN1CCN(c2ccc(N3C[C@H](CNC(=O)C(F)F)OC3=O)cc2F)C=N1 [Compound 45] | 1 µg/mL (≈ 2.5 µM) | 4 µg/mL (≈ 10 µM) |
| O=C(NC[C@H]1CN(c2ccc(N3C=NNCC3)c(F)c2)C(=O)O1)C(F)F [Compound 46] | 2 µg/mL (≈ 5.39 µM) | 16 µg/mL (≈ 43.1 µM) |
| O=C(NC[C@H]1CN(c2ccc(N3C=NN(C(=O)CO)CC3)c(F)c2)C(=O)O1)C(F)F [Compound 47] | 2 µg/mL (≈ 4.66 µM) | 8 µg/mL (≈ 18.6 µM) |
| CCN1CCN(c2ccc(N3C[C@H](CNC(=O)C(F)F)OC3=O)cc2F)C=N1 [Compound 48] | 4 µg/mL (≈ 10 µM) | 16 µg/mL (≈ 40.1 µM) |
| C#CCN1CCN(c2ccc(N3C[C@H](CNC(=O)C(F)F)OC3=O)cc2F)C=N1 [Compound 49] | 1 µg/mL (≈ 2.44 µM) | 8 µg/mL (≈ 19.5 µM) |
| N#CCN1CCN(c2ccc(N3C[C@H](CNC(=O)C(F)F)OC3=O)cc2F)C=N1 [Compound 50] | 2 µg/mL (≈ 4.87 µM) | 16 µg/mL (≈ 39 µM) |
